The values that follow come from paper PMC12207360, “Hyperpolarization Modulation of the T‐Type hCav3.2 Channel by Human Synenkephalin [1–53], a Shrew Neurotoxin Analogue without Paralytic Effects” (Angewandte Chemie (International Ed. in English), 2025).

Marks after values point to notes of the source that are not given here.

The conditions of series [1]: ColabFold-predicted structure, cited from earlier work. The text has this:
To compare the structural properties of hSYN and BPP2, we next examined their three‐dimensional structures using ColabFold^[ [64] ^] (a Google Colab version of AlphaFold2^[ [65] ^] using MMSeq2^[ [66] ^]). […] The four helical structures of hSYN were hi ... || Figure 3 Proposed three‐dimensional structures of hSYN and BPP2. a) ColabFold‐predicted structure of hSYN. Disulfide bonds are highlighted in orange sticks. b) Proposed helices in the calculated structures. c) CD spectra of hSYN. Obs: Synthetic 2 (20 µM) was measured in 50 mM potassium phosphate (pH 7.0) at 25 °C. Calc: The ColabFold‐predicted structure was analyzed using the PDBMD2CD server. d) Calculated helicities (%) of each model by three methods based on the CD spectra. e) Superimposed structures of hSYN (blue white) and BPP2 (pale green). Key residues that interact between the helixes a ...

The subject of series [2] is glutamyl endopeptidase (Glu-C). As to conditions: core N-terminal 1–41 part of BPP2; cited from earlier work. The method, then:
(§1) To determine the connectivity of disulfide bonds in synthetic 2, enzymatic digestion and subsequent fragment peptide analysis were performed. […] However, due to high proteolytic stability, analysis of these degraded products provid ...

The subject of series [3] is trypsin. The settings on record: core N-terminal 1–41 part of BPP2; cited from earlier work. The method, then: as §1
Series [4] concerns mealworms (larva of Zophobas atratus). The settings on record: cited from earlier work.
Series [5] relates to human T-type voltage-gated calcium channel (hCav3.2). As to conditions: 0.84 µM; synthetic BPP2; cited from earlier work. From the text:
(§2) The short‐tailed shrew Blarina brevicauda is one of the rare venomous mammals that has potent neurotoxins in its saliva and effectively captures prey such as earthworms and small insects.^[ [25] ^] Since Blarina shrew venom causes severe pain in those bitten,^[ [26] ^] it was predicted that the venom targets specific ion channels related to pain and neurotransmission.^[ [27] ^] Recently, we isolated and characterized Blarina paralytic peptides (BPPs) 1 and 2 as major active substances against mealworms (Figure 1a).^[ [28] ^] BPP2 was chemically synthesized based on the gene sequence of the pre ...

For series [6], the system named is hCav2.2. The settings on record: synthetic BPP2; cited from earlier work.
Excerpt: as §2

Series [7] deals with human T-type voltage-gated calcium channel hCav3.2 (human) (UniProt O95180).
UniProt O95180, sequence (O95180 whole entry): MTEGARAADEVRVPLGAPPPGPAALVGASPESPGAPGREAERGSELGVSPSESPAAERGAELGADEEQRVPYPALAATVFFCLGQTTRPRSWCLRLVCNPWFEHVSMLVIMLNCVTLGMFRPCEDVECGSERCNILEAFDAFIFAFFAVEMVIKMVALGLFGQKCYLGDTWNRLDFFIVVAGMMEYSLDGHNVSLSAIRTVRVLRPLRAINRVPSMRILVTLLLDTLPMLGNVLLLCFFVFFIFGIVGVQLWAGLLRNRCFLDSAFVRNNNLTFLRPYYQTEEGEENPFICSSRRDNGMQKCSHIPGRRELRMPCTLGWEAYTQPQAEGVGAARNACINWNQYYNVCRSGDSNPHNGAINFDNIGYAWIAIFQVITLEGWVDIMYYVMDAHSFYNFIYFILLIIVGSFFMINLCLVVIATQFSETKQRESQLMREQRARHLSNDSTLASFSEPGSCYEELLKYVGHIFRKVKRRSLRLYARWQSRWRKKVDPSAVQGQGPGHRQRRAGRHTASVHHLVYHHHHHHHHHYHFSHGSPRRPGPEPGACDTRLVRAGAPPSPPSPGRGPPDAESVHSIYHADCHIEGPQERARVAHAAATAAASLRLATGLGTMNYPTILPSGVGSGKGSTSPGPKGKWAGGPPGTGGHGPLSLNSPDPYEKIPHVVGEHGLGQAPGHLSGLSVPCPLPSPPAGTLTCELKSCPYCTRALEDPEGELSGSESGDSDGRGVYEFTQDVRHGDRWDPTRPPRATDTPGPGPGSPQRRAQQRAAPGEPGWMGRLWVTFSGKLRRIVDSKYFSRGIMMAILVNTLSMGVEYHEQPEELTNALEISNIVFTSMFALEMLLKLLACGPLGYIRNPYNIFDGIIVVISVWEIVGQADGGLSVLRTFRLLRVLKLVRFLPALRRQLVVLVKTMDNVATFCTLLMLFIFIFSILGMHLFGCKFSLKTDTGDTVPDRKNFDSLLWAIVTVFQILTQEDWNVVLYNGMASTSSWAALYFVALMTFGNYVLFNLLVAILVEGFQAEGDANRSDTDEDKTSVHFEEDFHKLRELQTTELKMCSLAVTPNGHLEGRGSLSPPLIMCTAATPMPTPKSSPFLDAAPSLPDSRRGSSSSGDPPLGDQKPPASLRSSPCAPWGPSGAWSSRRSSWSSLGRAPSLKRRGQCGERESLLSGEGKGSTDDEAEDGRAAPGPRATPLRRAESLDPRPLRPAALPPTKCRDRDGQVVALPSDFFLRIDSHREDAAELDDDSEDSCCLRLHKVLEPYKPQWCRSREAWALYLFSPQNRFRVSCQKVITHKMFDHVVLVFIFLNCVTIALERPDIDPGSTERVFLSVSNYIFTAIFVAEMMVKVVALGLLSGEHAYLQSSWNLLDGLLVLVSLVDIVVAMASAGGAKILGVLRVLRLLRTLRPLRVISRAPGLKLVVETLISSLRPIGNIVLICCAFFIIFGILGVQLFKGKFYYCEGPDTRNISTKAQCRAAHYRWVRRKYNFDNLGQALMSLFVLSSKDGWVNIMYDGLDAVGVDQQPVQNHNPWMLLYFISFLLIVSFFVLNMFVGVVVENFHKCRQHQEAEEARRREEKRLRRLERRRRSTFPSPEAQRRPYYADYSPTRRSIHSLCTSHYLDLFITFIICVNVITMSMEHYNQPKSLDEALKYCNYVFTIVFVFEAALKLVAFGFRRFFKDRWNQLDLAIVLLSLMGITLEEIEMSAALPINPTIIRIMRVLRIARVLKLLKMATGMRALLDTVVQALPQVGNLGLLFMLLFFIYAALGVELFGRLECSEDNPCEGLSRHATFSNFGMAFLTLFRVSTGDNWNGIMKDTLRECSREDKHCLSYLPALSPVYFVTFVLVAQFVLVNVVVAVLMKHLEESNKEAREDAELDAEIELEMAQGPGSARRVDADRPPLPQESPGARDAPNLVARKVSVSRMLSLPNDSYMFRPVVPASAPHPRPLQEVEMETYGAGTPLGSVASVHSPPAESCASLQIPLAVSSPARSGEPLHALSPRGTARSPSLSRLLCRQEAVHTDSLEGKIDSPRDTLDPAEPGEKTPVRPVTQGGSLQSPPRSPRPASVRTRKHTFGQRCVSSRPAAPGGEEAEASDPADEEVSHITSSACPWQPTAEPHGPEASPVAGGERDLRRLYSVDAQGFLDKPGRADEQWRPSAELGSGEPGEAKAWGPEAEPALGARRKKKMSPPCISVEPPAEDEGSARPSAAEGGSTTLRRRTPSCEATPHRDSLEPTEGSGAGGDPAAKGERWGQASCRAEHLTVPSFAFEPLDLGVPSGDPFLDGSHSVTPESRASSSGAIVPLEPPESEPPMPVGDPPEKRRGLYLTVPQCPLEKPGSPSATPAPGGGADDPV

Regarding Blarina paralytic peptide 2 [BPP2], the “Helicity, calculated, BestSel” value in series [1] (BestSel server) was 48.9%. For the same substance, the “Helicity, calculated, K2D3” value in series [1] (K2D3 server) is listed as 54.9%. Also, the “Helicity, calculated, PDBMD2CD” value in series [1] (PDBMD2CD server) is 55.7%. The “proteolytic stability toward Glu-C” value in series [2] was “highly stable”. Besides, in series [3], the “proteolytic stability toward trypsin” value is listed as “highly stable”. Also, in series [4] (i.p., 5.6 µg/g bodyweight), the Paralyzed/total numbers is given as 3/3 ^b). The “paralytic effect on mealworms” value in series [4] (synthetic BPP2, intraperitoneal, 5.6 µg g−1 body weight, immediately after administration) was “reliably induces paralysis and convulsions in mealworms”. Besides, the “hyperpolarization shift in the activation of hCav3.2” value in series [5] is “–11 mV”. For the same substance, the “effect on hCav2.2” value in series [6] is “no significant effect on hCav2.2”.
With “human synenkephalin N-terminal part [1–53] (hSYN), Type II disulfide bond connectivity, synthetic compound 2 (peptide)”, in series [7], the hyperpolarization shift of hCav3.2 activation at 0.74 µM hSYN (2); whole-cell patch clamp on HEK293T cells expressing hCav3.2, n = 5 was -15 mV.
